Target: CDK2/Cyclin E1 (Homo sapiens (Human), UniProt P24941)
Assay: CDK2/Cyclin E1 HTRF enzyme activity assay (Example A)
Type: biochemical
Settings: 1 mM ATP
Protocol: Assays were conducted in white 384-well polystyrene plates in a final reaction volume of 8 μL. […] HTRF signals were read after 1 hour at room temperature on a PHERAstar FS plate reader (BMG Labtech). Data was analyzed with IDBS XLFit and GraphPad Prism 5.0 software using a three or four parameter dose response curve to determine IC50 for each compound.

| SMILES | IC50 [nM] |
| --- | --- |
| CS(=O)(=O)N1CC[C@H](Nc2ncc(C(F)(F)F)c(-c3cn(-c4cccnc4C(F)F)cn3)n2)[C@H](F)C1 [Example 50, 4-(1-(2-(Difluoromethyl)pyridin-3-yl)-1H-imidazol-4-yl)-N-((3R,4S)-3-fluoro-1-(methylsulfonyl)piperidin-4-yl)-5-(trifluoromethyl)pyrimidin-2-amine] | ≤ 50 |
| CN(C)C(=O)c1ccc(-n2cnc(-c3nc(NC4CCN(S(C)(=O)=O)CC4)ncc3C(F)(F)F)c2)c(Cl)c1 [Example 135, 3-Chloro-N,N-dimethyl-4-(4-(2-((1-(methylsulfonyl)piperidin-4-yl)amino)-5-(trifluoromethyl)pyrimidin-4-yl)-1H-imidazol-1-yl)benzamide] | ≤ 50 |
| Cc1nc(-c2nc(NC3CCN(S(C)(=O)=O)CC3)ncc2C(F)(F)F)cn1-c1ccc(N2CCC(N3CCCC3)CC2)cc1F [Example 114, 4-(1-(2-Fluoro-4-(4-(pyrrolidin-1-yl)piperidin-1-yl)-phenyl)-2-methyl-1H-imidazol-4-yl)-N-(1-(methyl-sulfonyl)piperidin-4-yl)-5-(trifluoro-methyl)pyrimidin-2-amine] | ≤ 50 |
| CCS(=O)(=O)N1CCC(Nc2ncc(C(F)(F)F)c(-c3cn(-c4ccc(CN5CCC5)cc4Cl)cn3)n2)CC1 [Example 229, 4-(1-(4-(Azetidin-1-ylmethyl)-2-chlorophenyl)-1H-imidazol-4-yl)-N-(1-(ethylsulfonyl)piperidin-4-yl)-5-(trifluoromethyl)pyrimidin-2-amine] | ≤ 50 |
| Cc1c(C#N)cccc1-n1cnc(-c2nc(N[C@H]3CCN(S(C)(=O)=O)C[C@H]3F)ncc2C(F)(F)F)c1 [Example 42, 3-(4-(2-(((3R,4S)-3-Fluoro-1-(methylsulfonyl)piperidin-4-yl)amino)-5-(trifluoromethyl)pyrimidin-4-yl)-1H-imidazol-1-yl)-2-methylbenzonitrile] | ≤ 50 |
| CN(C)C1CCN(c2ccc(-n3cnc(-c4nc(NC5CCN(S(C)(=O)=O)CC5)ncc4C(F)(F)F)c3)c(Cl)c2)CC1 [Example 145, 4-(1-(2-Chloro-4-(4-(dimethylamino)-piperidin-1-yl)-phenyl)-1H-imidazol-4-yl)-N-(1-(methylsulfonyl)-piperidin-4-yl)-5-(trifluoromethyl)-pyrimidin-2-amine] | ≤ 50 |
| C[C@@H]1CN(S(C)(=O)=O)CC[C@@H]1Nc1ncc(C(F)(F)F)c(-c2cn(-c3ccc(CN(C)C)cc3Cl)cn2)n1 [Example 220, 4-(1-(2-Chloro-4-((dimethylamino)-methyl)phenyl)-1H-imidazol-4-yl)-N-((3R,4S)-3-methyl-1-(methylsulfonyl)-piperidin-4-yl)-5-(trifluoromethyl)-pyrimidin-2-amine] | ≤ 50 |
| CC(O)c1ccc(-n2cnc(-c3nc(NC4CCN(S(C)(=O)=O)CC4)ncc3C(F)(F)F)c2)c(Cl)c1 (stereo not shown) [Example 248, 1-(3-Chloro-4-(4-(2-((1-(methylsulfonyl)piperidin-4-yl)amino)-5-(trifluoromethyl)pyrimidin-4-yl)-1H-imidazol-1-yl)phenyl)ethan-1-ol] | ≤ 50 |
| CS(=O)(=O)N1CCC(Nc2ncc(C(F)(F)F)c(-c3cn(-c4c(F)cccc4C#N)cn3)n2)CC1 [Example 294, 3-Fluoro-2-(4-(2-((1-(methylsulfonyl)piperidin-4-yl)amino)-5-(trifluoromethyl)pyrimidin-4-yl)-1H-imidazol-1-yl)benzonitrile] | ≤ 50 |
| CC1CN(Cc2ccc(-n3cnc(-c4nc(NC5CCN(S(C)(=O)=O)CC5)ncc4C(F)(F)F)c3)c(Cl)c2)C1 [Example 177, 4-(1-(2-Chloro-4-((3-methylazetidin-1-yl)methyl)phenyl)-1H-imidazol-4-yl)-N-(1-(methylsulfonyl)piperidin-4-yl)-5-(trifluoromethyl)pyrimidin-2-amine] | ≤ 50 |
| Cc1nc(-c2nc(N[C@H]3CCN(S(C)(=O)=O)C[C@H]3F)ncc2C(F)(F)F)cn1-c1ccc(CNC(C)C)cc1F [Example 388, N-((3R,4S)-3-Fluoro-1-(methylsulfonyl)piperidin-4-yl)-4-(1-(2-fluoro-4-((isoporopylamino)methyl)phenyl)-2-methyl-1H-imidazol-4-yl)-5-(trifluoromethyl)pyrimidin-2-amine] | ≤ 50 |
| CS(=O)(=O)N1CC[C@H](Nc2ncc(C(F)(F)F)c(-c3cn(-c4ccccc4C#N)cn3)n2)[C@H](F)C1 [Example 472, 2-(4-(2-(((3R,4S)-3-Fluoro-1-(methylsulfonyl)piperidin-4-yl)amino)-5-(trifluoromethyl)pyrimidin-4-yl)-1H-imidazol-1-yl)benzonitrile] | ≤ 50 |

The remaining lines, values ahead:

| IC50 [nM] | SMILES |
| --- | --- |
| ≤ 50 | CS(=O)(=O)N1CC[C@H](Nc2ncc(C(F)(F)F)c(-c3cn(-c4cccc(C#N)c4C(F)(F)F)cn3)n2)[C@H](F)C1 [Example 69, 3-(4-(2-(((3R,4S)-3-Fluoro-1-(methylsulfonyl)piperidin-4-yl)amino)-5-(trifluoromethyl)pyrimidin-4-yl)-1H-imidazol-1-yl)-2-(trifluoromethyl)benzonitrile] |
| ≤ 50 | CS(=O)(=O)N1CC[C@@H](Nc2ncc(C(F)(F)F)c(-c3cn(-c4ccc(CN5CCC5)cc4Cl)cn3)n2)[C@H](F)C1 [Example 399, 4-(1-(4-(Azetidin-1-ylmethyl)-2-chlorophenyl)-1H-imidazol-4-yl)-N-((3R,4R)-3-fluoro-1-(methylsulfonyl)piperidin-4-yl)-5-(trifluoromethyl)pyrimidin-2-amine] |
| ≤ 50 | CS(=O)(=O)N1CCC(Nc2ncc(C(F)(F)F)c(-c3cn(-c4c(Cl)cccc4C#N)cn3)n2)CC1 [Example 2, 3-Chloro-2-(4-(2-((1-(methylsulfonyl)piperidin-4-yl)amino)-5-(trifluoromethyl)pyrimidin-4-yl)-1H-imidazol-1-yl)benzonitrile] |
| ≤ 50 | CN1CCN(Cc2cc(F)c(-n3cnc(-c4nc(NC5CCN(S(C)(=O)=O)CC5)ncc4C(F)(F)F)c3)c(F)c2)CC1=O [Example 409, 4-(3,5-Difluoro-4-(4-(2-((1-(methylsulfonyl)piperidin-4-yl)amino)-5-(trifluoromethyl)pyrimidin-4-yl)-1H-imidazol-1-yl)benzyl)-1-methylpiperazin-2-one] |
| ≤ 50 | CC(C)(O)Cn1cnc(-c2nc(NC3CCN(S(C)(=O)=O)CC3)ncc2C(F)(F)F)c1 [Example 22, 2-Methyl-1-(4-(2-((1-(methylsulfonyl)piperidin-4-yl)amino)-5-(trifluoromethyl)pyrimidin-4-yl)-1H-imidazol-1-yl)propan-2-ol] |
| ≤ 50 | CNCc1ccc(-n2cnc(-c3nc(N[C@H]4CCN(S(C)(=O)=O)C[C@H]4C)ncc3C(F)(F)F)c2)c(Cl)c1 [Example 182, 4-(1-(2-Chloro-4-((methylamino)methyl)phenyl)-1H-imidazol-4-yl)-N-((3R,4S)-3-methyl-1-(methylsulfonyl)piperidin-4-yl)-5-(trifluoromethyl)pyrimidin-2-amine] |
| ≤ 50 | C[C@@]1(O)CCN(Cc2cccc(-n3cnc(-c4nc(NC5CCN(S(C)(=O)=O)CC5)ncc4C(F)(F)F)c3)c2C(F)(F)F)C1 [Example 381, (R)-3-Methyl-1-(3-(4-(2-((1-(methylsulfonyl)piperidin-4-yl)amino)-5-(trifluoromethyl)pyrimi-din-4-yl)-1H-imidazol-1-yl)-2-(trifluoromethyl)benzyl) pyrrolidin-3-ol] |

— patent US11427567B2, “Imidazolyl pyrimidinylamine compounds as CDK2 inhibitors” (Incyte Corporation, priority 2019, dated 2022)
